The series is described as follows: gradient 5% acetonitrile 3 min, to 50% in 2 min, to 85% in 15 min, held 3 min, 100 µL/min. The following applies: column: Zorbax Extend-C18 2.1 x 50 mm; eluents: water / acetonitrile, 0.1% formic acid. The method in brief: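 Data were gathered over 3 months by HPLC coupled to a quadrupole time-of-flight mass spectrometer, operated in positive and negative ionization mode. Mixtures of ~100 pure standards ran on a Zorbax Extend-C18 column (2.1 × 50 mm, 1.8 μm) at 100 μL/min, with water and acetonitrile each containing 0.1% formic acid and dead and dwell volumes of 40 μL and 900 μL. Retention time was read from adduct peaks picked by computer and checked manually.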
`CC(=O)c1ccc(NC(=O)c2nc(N3CCCC3)c3c(C)cc(C)nc3n2)cc1` gave an RP-LC retention time of 646 s.

Consider `CC(C)CNC(=O)c1ccc2c(c1)Sc1ncccc1C(=O)N2C1CC1`, for which the RP-LC retention time is 752 s.

Turning to `Cc1ccc(S(=O)(=O)N2C[C@@H](F)C[C@H]2C(=O)N2CCOCC2)c(C)c1`, the RP-LC retention time amounted to 740 s. For `O=C(Cc1ccsc1)N1CCCC1(CO)Cc1ccccc1` (stereo not drawn) the value was 805 s; for `CC(C)(C)c1ccc(C(=O)Nc2ccc(S(N)(=O)=O)cc2)cc1`, 932 s. For `CC1CCN(S(=O)(=O)c2nn(C)cc2C(=O)NCc2cc(F)cc(F)c2)CC1` the value was 969 s.

The compound `Cn1cc(C(CNC(=O)Nc2cccc(F)c2)c2cccnc2)c2ccccc21` (stereo not drawn) showed an RP-LC retention time of 660 s. As for `CCOc1ccccc1CN1CCc2nc(N3CCN(c4ccccn4)CC3)ncc2C1`, the RP-LC retention time was found to be 583 s. With `COc1ccc(CNC(=O)Nc2cccc(-c3ccc(N4CCOCC4)nn3)c2)cc1` the figure was 655 s. With `Cc1ccc(NC(=O)N(CCc2cccs2)Cc2cccnc2)cc1C` the figure was 649 s; with `Cc1ccc(NC(=O)CC2COc3ccccc3NC2=O)cc1C` (stereo not drawn), 687 s; with `CCn1c(CCNC(=O)c2ccccc2F)nc2cccnc21`, 602 s.

For `O=C(Nc1cc(F)ccc1F)C1CCN(c2ccc(=O)n(-c3ccc(F)cc3)n2)CC1`, the RP-LC retention time came to 874 s. With `CCOc1ccc(NC(=O)N2CCCC(Cn3c(C4CC4)nc4cccnc43)C2)cc1` (stereo not drawn) the figure was 689 s; with `CC1Oc2ccccc2N(Cc2nc(-c3ccc(Br)cc3)no2)C1=O` (stereo not drawn), 1180 s. With `COc1cc(NC(=O)N2CCCC2c2nncn2C2CCCC2)cc(OC)c1` (stereo not drawn) the figure was 677 s. With `O=C(N1CCC(c2nc(C3CCOCC3)no2)CC1)C1(c2ccccc2)CC1` the figure was 817 s; with `CCCN1C(=O)C2CCC(=O)N2c2ccc(C(=O)Nc3ccc4c(c3)OCCO4)cc21` (stereo not drawn), 770 s.

`Cc1ccc(Cl)cc1N1CCN(C(=O)C2CCN(c3ncnc4c3oc3ccccc34)CC2)CC1` registered an RP-LC retention time of 1060 s. For `NS(=O)(=O)c1ccc(NC(=O)Cc2cn(Cc3ccc(F)cc3)c3ccccc23)cc1` the value was 824 s; for `COc1cccc(NC(=O)Cc2csc3nc(-c4ccc(OC)c(OC)c4)cn23)c1`, 780 s; for `Clc1ccc(Cl)c(-c2ccc(CNCC3CCCO3)o2)c1` (stereo not drawn), 699 s. For `O=C(NCc1ccco1)c1ccc2c(c1)N(Cc1ccccc1)C(=O)CO2` the value was 942 s; for `Cc1ccc2nc(Nc3ncc4c(n3)CC(C)CC4=O)nc(C)c2c1` (stereo not drawn), 651 s. With `CCC(C)NC(=O)CC1CCN(C(=O)c2[nH]c(C)cc2C)CC1` (stereo not drawn) the figure was 686 s.

`O=C(c1cccc(Br)c1)N1CCC(n2c(-c3ccco3)nc3cccnc32)C1` (stereo not drawn) yielded an RP-LC retention time of 814 s.

The compound `CC(C)NC(=O)C1CCCN(c2nccn3nc(-c4ccccc4Cl)cc23)C1` (stereo not drawn) came in with an RP-LC retention time of 806 s. With `CCOC(=O)c1ccc(NC(=O)c2cnc(-c3ccc(C)cc3)nc2-c2ccncc2)cc1` the figure was 1050 s; with `Cn1c(=O)oc2cc(-c3noc(-c4cccc(F)c4)n3)ccc21`, 1020 s; with `Cc1cc(C)cc(NC(=O)C(C)C2CCN(C(=O)Nc3ccc(F)cc3)CC2)c1` (stereo not drawn), 917 s. With `O=S(=O)(c1ccccc1F)N1CCC(c2noc(-c3ccccc3)n2)CC1` the figure was 1020 s. With `COc1ccc(-c2ccc(=O)n(Cc3nc(-c4ccccc4)no3)n2)cc1` the figure was 954 s; with `CC(C)c1cc(C(C)C)n2nc(N)nc2n1`, 734 s.

The values are drawn from the METLIN SMRT retention time set (Domingo-Almenara et al. 2019).
